Patent US7179612B2, “Method for detecting a lipoprotein-acute phase protein complex and predicting an increased risk of system failure or mortality” (bioMerieux, Inc., priority 2000, dated 2007)
pEC50, pIC50: −log10 of the molar value.

Columns and labels:
[1] = biological target: T1, VLDL/CRP complex (Homo sapiens, UniProt P02741); test: Inhibition of VLDL/CRP complex formation (Ca2+-dependent turbidity change); assay type: biochemical
T1 sequence (P02741 19-224): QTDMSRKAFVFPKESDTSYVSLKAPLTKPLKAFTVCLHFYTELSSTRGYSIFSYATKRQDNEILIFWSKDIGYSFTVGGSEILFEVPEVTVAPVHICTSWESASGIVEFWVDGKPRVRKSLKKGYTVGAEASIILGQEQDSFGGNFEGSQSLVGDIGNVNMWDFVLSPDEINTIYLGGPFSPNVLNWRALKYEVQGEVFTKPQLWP
Source text: It is known that CRP binds directly to PC and that PC competes with lipoproteins for binding to CRP.

[2] = biological target: T1, VLDL/CRP complex; test: Calcium concentration dependence of formation of the VLDL/CRP complex; assay type: biochemical; conditions: FIG. 38; read-out: calcium concentration at which complex formation is half maximal
Protocol: FIG. 38 is a graph depicting the calcium concentration dependence of formation of the VLDL/CRP complex. Complex formation is half maximal at 5.0 mM calcium.

[3] = biological target: T2, CRP (Homo sapiens, UniProt P02741); test: Direct binding of apo(B) to CRP
T2 construct: from tissue; host or cells: patient plasma (calcium precipitate, ammonium sulfate fractionation, Q-Sepharose peak 3)
T2 sequence (P02741 19-224): T1 sequence (P02741 19-224)

Molecule	inhibition of complex formation (result in words) [1]	other results
NCCCCCC(=O)O [EACA]	inhibited	pIC50 ([1]; FIG. 40): 2.68
[Ca+2] [calcium]		pEC50 [2]: 2.30
apo(B): apo-lipoprotein B, the major protein component of VLDL		direct binding to CRP (result in words) [3]: can bind directly to CRP
phosphotidylethanolamine	inhibited	

Further lines, with some results ahead:

inhibition of complex formation (result in words) [1]	Molecule	other results
inhibited	NCCOP(=O)(O)O [phosphorylethanolamine]	
inhibited	phosphotidylcholine	
